The subject of test [1] is GP2d (expressing KRas G12D mutant). The test is described as follows: Proliferation Assay (Cell Viability Assay). Format: cell-based. As to conditions: Homo sapiens, Proliferation assay, read-out: GP2d IC50 (nM) Colorectal. Put shortly:
(§1)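 Cells plated at 2000–5000/well overnight, then treated 2–4 days at 37 °C, 5% CO2 with compound at 10 μM single dose or serial dilutions for IC50, in 0.3% DMSO and 10% FBS. Viability read by CellTiter 96 Aqueous One (MTS); % proliferation inhibition calculated from raw data.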

The subject of test [2] is MM.1R (expressing wild type KRAS). The test is described as follows: Proliferation Assay (Cell Viability Assay). As to conditions: Homo sapiens, read-out: MM.1R IC50 (nM) Multiple Myloma. In kind it is cell-based. Put shortly: as §1
Another test has as its system active/cleaved caspase 3. The test can be described thus: Cell-based caspase activation assay (western blot). More on the design: species or system human. As for the experimental part: (§2) Biological Example 4: Puma Expression and Caspases Activation Assay
(§3) Protocols for Cell-Based Puma Expression and Caspase Activation Assays
(§4) Cell lines: All human tumor-derived cancer cell lines were purchased from American Type Culture Collection. Human tumor-derived cancer cell lines Panc-1 (expressing KRas G12D mutant), MiaPaca-2 (expressing KRas G12C mutant), A549 (expressing KRas G12S mutant), and A375 (expressing wild type KRas) were grown in complete DMEM-High Glucose medium and NCI-H1975 (expressing wild type KRas), MM.1R (expressing wild type KRas) and IM.9 (expressing wild type KRas) were grown in RPMI1640 medium. Human tumor-derived cancer cell line BT-549 (expressing wild type KRas) was grown in RPMI1640 medium with 11.8U insulin. All mediums were supplemented with penicillin (100 U/mL), streptomycin (100 μg/mL), and 10% heat-inactivated FBS at 37° C. in a humidified incubator with 5% CO2.
(§5) Method: Cells were plated at 300,000 to 800,000 cells/well density in a 6-well plate in the presence of 10% FBS. The next day small molecules to be tested were added to the cells in the final concentration of 3 μM in the presence of 0.3% DMSO for 48 hours incubation at 37° C. For IC50 value determination, serial dilutions of compounds were added to cells under the same conditions. Following 48 hours of incubation cells were lysed with lysis buffer containing 1% Triton X-100, EDTA, and Halt™ Protease & Phosphatase Inhibitor Cocktail (Thermo Scientific). Protein concentration was assessed by BCA protein assay (Thermo Scientific). Increase expression of PUMA and active/cleaved forms of caspase 3, caspase 6 and caspase 9 were detected by western blot.
(§6) Western blot protocol: Equal amounts of protein (15-50 μg) were separated by SDS-PAGE and transferred to nitrocellulose membranes (Invitrogen by Thermo Fisher Scientific). The membrane was stained with Ponceau S Stain (Boston BioProducts) to verify uniform protein loading. Membranes were blocked with 10% milk and expression levels of PUMA was assessed by incubating overnight at 4° C. with the antibody PUMA (D30C10) from Cell Signaling Technology (#12450) and active/cleaved forms of caspase 3, caspase 6 and caspase 9 by incubating overnight at 4° C. with the following antibodies: cleaved caspase-3 (Asp175) (5A1E), cleaved caspase-6 (Asp162) and cleaved caspase-9 (Asp330) (D2D4) (all antibodies from Cell Signaling Technology). Then the membranes were incubated with HRP-conjugated secondary antibody (Jackson Immunoresearch, West Grove, PA). Bands were incubated in Amersham ECL Prime Western Blotting Detection Reagent (GE Healthcare) and visualized using the ChemiDoc MP imaging system (Bio-Rad).
In general terms: In western blotting, separated proteins are transferred to a membrane and probed.

Another test relates to active/cleaved caspase 6. The test is described as follows: Cell-based caspase activation assay (western blot). More on the design: species or system human. As for the experimental part:
as §2, §3, §4, §5, §6

A further test relates to active/cleaved caspase 9. The test is described as follows: Cell-based caspase activation assay (western blot). More on the design: species or system human. The protocol:
as §2, §3, §4, §5, §6

For a further test, the system named is PUMA expression. The test can be described thus: Cell-based Puma expression assay (western blot). More on the design: species or system human. As for the experimental part: as §2, §3, §4, §5, §6

Molecules are shown by their SMILES.

Consider `Cc1c(-c2ccn(C(C)C)n2)cn2nc(-c3nccn3C)nc(Nc3ccn(C4CC4)n3)c12` [Compound 84, N-(1-Cyclopropyl-1H-pyrazol-3-yl)-6-(1-isopropyl-1H-pyrazol-3-yl)-5-methyl-2-(1-methyl-1H-imidazol-2-yl)pyrrolo[2,1-f][1,2,4]triazin-4-amine], for which the IC50 in test [1] was 1 to 10 nM; in test [2], less than 1 nM.

On to `Cc1c(-c2ccn(C(C)C)n2)cn2nc(-c3nccn3C)nc(Nc3cc4n(n3)CCO4)c12` [Compound 91, N-(6-(1-Isopropyl-1H-pyrazol-3-yl)-5-methyl-2-(1-methyl-1H-imidazol-2-yl)pyrrolo[2,1-f][1,2,4]triazin-4-yl)-2,3-dihydropyrazolo[5,1-b]oxazol-6-amine], for which the “Caspase 3 activation” value in the test on active/cleaved caspase 3 (A549, after 48 hours) is “yes”; with active/cleaved caspase 3 (BT-549, after 48 hours) it was “yes”; with active/cleaved caspase 3 (MiaPaca2, after 48 hours) it was “yes”. The “Caspase 6 activation” value in the test on active/cleaved caspase 6 (A549, after 48 hours) is reported as “yes”; with active/cleaved caspase 6 (BT-549, after 48 hours), “yes”; with active/cleaved caspase 6 (MiaPaca2, after 48 hours) it was “yes”. Further, the “Caspase 9 activation” value in the test with active/cleaved caspase 9 (A549, after 48 hours) was “yes”; in the test with active/cleaved caspase 9 (BT-549, after 48 hours) it was “yes”; with active/cleaved caspase 9 (MiaPaca2, after 48 hours), “yes”. Also, the “Increased PUMA expression” value was “yes” in the test on PUMA expression (A549, after 48 hours); “yes” in the test on PUMA expression (BT-549, after 48 hours); “yes” in the test with PUMA expression (MiaPaca2, after 48 hours).

The IC50 is the concentration that gives 50% inhibition.
